Experimental data reported in patent US20260137700A1, “PHARMACEUTICAL COMBINATION OF PRMT5 INHIBITOR AND DNA DAMAGE-INDUCING SUBSTANCE” (SK Biopharmaceuticals Co., Ltd., priority 2022, published 2026).

Assays:
[1] = tested on: symmetric dimethyl arginine (SDMA); assay: In vivo target inhibition: SDMA ELISA in tumor samples of the Mia PaCa-2 xenograft mouse model; settings: co-administration with 60 mg/kg gemcitabine
Procedure: Quantitative reduction levels of symmetric dimethyl arginine (SDMA) in tumor samples harvested from a subcutaneous xenograft mouse model of Mia PaCa-2 were measured by enzyme-linked immunosorbent assay (ELISA).
Reagents: Bradford solution (catalog no. 500-0006) was purchased from Bio-rad (USA). SDMA antibody (catalog no. 13222s) was purchased from Cell signaling Technology (USA). SmD3 antibody (catalog no. ap12451a) was purchased from Abgent (USA). Secondary antibody (catalog no. ab6721) and TMB substrate (catalog no. ab210902) were purchased from Abcam (UK).
Experimental procedure: Tumor tissue transplanted into mice was extracted, cells were lysed, and quantified with Bradford solution. […] of protein per sample was diluted with carbonate-bicarbonate buffer, dispensed into a 96-well plate, and reacted at room temperature for 2 hours. After washing three times with phosphate-buffered saline (PBST) containing 0.05% Tween-20, 200 μL of PBST containing 5% bovine serum albumin (BSA) (BSA-PBST) was added, and reacted at room temperature for 2 hours. After washing three times with PBST, 100 μL of SDMA antibody and SmD3 antibody were diluted in BSA-PBST, each was dispensed, and reacted overnight at 4° C. After washing three times with PBST on next day, 100 μL of secondary antibody diluted in BSA-PBST was added, and reacted at room temperature for 1 hour. After washing three times with PBST, 100 μL of TMB substrate was added and reacted at room temperature for 10-20 minutes, and 100 μL of 1N sulfuric acid solution was added to terminate the reaction. Then, the degree of SDMA inhibition by the compound was calculated by measuring the absorbance at 450 nm.

[2] = tested on: cancer cell lines of Table 2 (A549, A549/CR, A549/PR, CAPAN-1, NCI-H1048, MDA-MB-231, Mia PaCa-2, SNU-324, OVCAR3, PA-1, PANC-1, U-87 MG); assay: Cell viability assay (WST) with combination synergy analysis (Bliss score); format: cell-based, human; settings: combination with various DNA damage inducers, FIGS. 1 to 25; culture ended on days 7 to 9
Procedure: Most cell lines were obtained from the American Type Culture Collection (ATCC) or the Korean Cell Line Bank (KCLB). Combination experiments in cisplatin-resistant and paclitaxel-resistant cell lines were performed at the Asan Preclinical Evaluation center for cancer therapeutiX of Asan Medical Center, Seoul. All cell lines were maintained in appropriate growth medium for the cell line in 100-pi dishes oRT75 (75 cm2) flasks, cultured at 37° C. with 5% CO2, and passaged every 3-4 days. Growth medium conditions and cell line information are listed in Table 2, and the cells were counted using Countess (Invitrogen) to obtain the number of viable cells. Mutation and HRD status by cell type are described in Table 3.
The next day, compound-87 was diluted 1/2 to 1/4 to a concentration of 20 μM to 0.002 μM and treated at a set concentration range, and the co-administered drug was diluted 1/2 to 1/3 to a concentration of 100 μM to 0.00046 μM and treated at a 1:1 (v/v) ratio. Finally, the treatment ratio of compound-87 and the co-administered substance was between 1:20000 and 1:0.00015, and in clinical practice, compound-87: drug to be co-administered can be treated at a ratio of 1:10000 to 1:0.0001.
PANC-1 (wild-type BRCA1/BRCA2) pancreatic cancer cells were treated with compound-87 at concentrations of […], and E7016, a PARP inhibitor as a co-administered agent at concentration of 0.078, 0.156, 0.313, 0.625, 1.25, 2.5, 5, or 10 μM (FIG. 25). Cell culture was terminated on days 7 to 9, and cell viability and synergistic effect were evaluated for each combination of concentrations.
Cell viability was measured by a colorimetric assay using water-soluble tetrazolium salt (WST). […]
Results are normalized to DMSO-treated groups as 100% and expressed as the percent of viable cells upon compound addition. […]
The synergy of each compound was analyzed using Combenefit software (Cambridge Research UK, Cambridge Institute, University of Cambridge, United Kingdom), and synergy was evaluated by using Blliss (Ref: Di Veroli et al., 2016, Bioinformatics 32(18):2866-2868). […]

[3] = tested on: human small cell lung cancer cells NCI-H1048; assay: Subcutaneous xenograft mouse model of NCI-H1048 small cell lung cancer cells, tumor growth inhibition; format: in vivo; settings: day 23; cisplatin alone, 4 mg/kg intraperitoneally once a week
Procedure: For in vivo efficacy study in a subcutaneous xenograft mouse model of human small cell lung cancer cells NCI-H1048, co-administration of compound-87 as a PRMT5 inhibitor according to an example of the present invention and cisplatin as an alkylating agent of a chemotherapeutic agent, was performed. To produce a small cell lung cancer xenograft model, 10 million of NCI-H1048 cells were injected subcutaneously into the right flank of female nude mice, and tumor growth was monitored.
To evaluate the anticancer effect, when the tumor volume reached approximately 162 mm^3 on average, the mice were divided into four groups. The all group included a solvent-treated group (Vehicle 1 (Compound-87)+Vehicle 2 (cisplatin) group), a Compound-87 monotherapy group (50 mg/kg), a cisplatin monotherapy group (4 mg/kg), and combination therapy group of Compound-87 and cisplatin. The Compound-87 treatment group was administered orally on a 3-day administration/4-day non-administration schedule, and cisplatin was administered intraperitoneally once a week for 22 days (Day 1-Day 23). All mice were euthanized on Day 22 (Day 23).

[4] = tested on: CTG-1932, a human non-small cell lung cancer patient-derived cell line; assay: Subcutaneous xenograft mouse model of patient-derived CTG-1932 non-small cell lung cancer, tumor growth inhibition; format: in vivo; settings: day 9; paclitaxel 20 mg/kg i.p. once a week, single treatment; significant
Procedure: For in vivo efficacy studies in a subcutaneous xenograft mouse model of CTG-1932, a human non-small cell lung cancer patient-derived cell line, combination therapy of compound-87 as a PRMT5 inhibitor according to one example of the present invention and with paclitaxel as a chemotherapy agent, was performed at Champions Oncology (USA).
To produce a non-small cell lung cancer xenograft model, CTG-1932 tumor stock was grown and harvested from primary mice and then transplanted subcutaneously into the left flank of immunocompromised female mice as a 5×5×5 mm^3 tumor fragment. When the tumor volume reached approximately 150-300 mm^3, the mice were separated into four groups of 10 each. All group consisted of a solvent-treated group (vehicle group), a compound-87 monotherapy group (50 mg/kg, oral administration, 3 days on/4 days off), a paclitaxel monotherapy group (20 mg/kg, intraperitoneal administration once a week), and combination treatment group of compound-87 (50 mg/kg, oral administration, 3 days on/4 days off) and paclitaxel (20 mg/kg, intraperitoneal administration once a week). tumor volume and body weight were measured twice a week.

[5] = tested on: glioblastoma; settings: glioblastoma chemotherapy; cited from earlier work

CC(=O)N1CCC(Oc2ccc3c(c2)OCCN(C[C@H](O)CN2CCc4ccccc4C2)C3=O)CC1 [Compound-78, 8-[(1-acetyl-4-piperidyl)oxy]-4-[(2R)-3-(3,4-dihydro-1H-isoquinolin-2-yl)-2-hydroxy-propyl]-2,3-dihydro-1,4-benzoxazepin-5-one]
SDMA amount in tumor samples compared to the vehicle group ([1]; 25 mg/kg): 33.5% | SDMA amount in tumor samples compared to the vehicle group ([1]; 50 mg/kg): 24.9% | inhibition at 25 mg/kg ([1]; Mus musculus, MIA PaCa-2, 25 mg/kg): 66.5% | inhibition at 50 mg/kg ([1]; Mus musculus, MIA PaCa-2, 50 mg/kg): 75.1%

CN1CCC(Oc2ccc3c(c2)OC(C)(C)CN(C[C@H](O)CN2CCc4ccccc4C2)C3=O)CC1 [Compound-112, 4-[(2R)-3-(3,4-dihydro-1H-isoquinolin-2-yl)-2-hydroxy-propyl]-2,2-dimethyl-8-[(1-methyl-4-piperidyl)oxy]-3H-1,4-benzoxazepin-5-one]
inhibition of cell viability, combination treatment compared to single agent [2]: enhanced inhibition effects of cell viability

O=C1c2ccc(O[C@@H]3CCN(C4COC4)C3)cc2OCCN1C[C@H](O)CN1CCc2ccccc2C1 [Compound-271, 4-[(2R)-3-(3,4-dihydro-1H-isoquinolin-2-yl)-2-hydroxy-propyl]-8-[(3R)-1-(oxetan-3-yl)pyrrolidin-3-yl]oxy-2,3-dihydro-1,4-benzoxazepin-5-one]
inhibition of cell viability, combination treatment compared to single agent [2]: enhanced inhibition effects of cell viability

N.N.[Cl][Pt][Cl] [cisplatin, azane; dichloroplatinum, reference compound]
tumor growth inhibition rate [3]: 62.9%

CC(=O)O[C@H]1C(=O)[C@@]2(C)[C@H]([C@H](OC(=O)c3ccccc3)[C@]3(O)C[C@H](OC(=O)[C@H](O)[C@@H](NC(=O)c4ccccc4)c4ccccc4)C(C)=C1C3(C)C)[C@]1(OC(C)=O)CO[C@@H]1C[C@@H]2O [paclitaxel, [(1S,2S,3R,4S,7R,9S,10S,12R,15S)-4,12-diacetyloxy-15-[(2R,3S)-3-benzamido-2-hydroxy-3-phenylpropanoyl]oxy-1,9-dihydroxy-10,14,17,17-tetramethyl-11-oxo-6-oxatetracyclo[11.3.1.03,10.04,7]heptadeca-13-en-2-yl]benzoate, reference compound]
tumor growth inhibition compared to the solvent-treated group [4]: 75%

Cn1nnc2c(C(N)=O)ncn2c1=O [temozolomide, 3-methyl-4-oxoimidazo[5,1-d][1,2,3,5]tetrazine-8-carboxamide]
average survival [5]: ≤ 14.5 months
